Results on three compounds are retold here after patent US5057513A, “Spiro-thiazepine derivatives useful as PAF antagonists” (Fujisawa Pharmaceutical Co., Ltd., priority 1989, dated 1991).

For assay [1], the system named is PAF-induced vascular permeability increase. The experiment in a line: Inhibition of PAF-induced vascular permeability increase. Format: in vivo, 6-week-old male ddY mice. The settings on record: Mus musculus, ip; mice; intraperitoneally, 5 minutes before Evan's blue; PAF 50 ng intradermally; read-out: ED50 (effective dose required to inhibit PAF-induced vascular permeability increase by 50%). The procedure:
PAF (50 ng) was injected intradermally to the depilated back of 6-week-old male ddY mice. Evan's blue (1 mg) was injected intravenously 5 minutes before the PAF injection, and the test compound was administered intraperitoneally 5 minutes before the Evan's blue injection. Thirty minutes later, the animals were killed and the area of dye leakage was measured.
The inhibition was expressed as ED50 value, i.e. effective dose (mg/kg) required to inhibit PAF-induced vascular permeability increase by 50%.

Assay [2] relates to endotoxin-induced disseminated intravascular coagulation (serum FDP). The experiment in a line: Effect of the test compound on the endotoxin-induced disseminated intravascular coagulation. Format: in vivo, male Wister rats. The settings on record: Rattus norvegicus, rats. The method, then: Conscious male Wister rats, 150-200 g body weight, 7 weeks old, were used in the experiment on endotoxin-induced disseminated intravascular coagulation (DIC). The animals were fasted before the experiment. A 10 mg/kg dose of endotoxin (E. coli) dissolved in saline was given as an injection via tail vein. Test compound was given orally 60 minutes before and 6 hours after endotoxin. The intravenous administration of the test compound into a tail vein was simultaneous with intravenous injection of endotoxin.
Arterial blood samples were taken 4 hours (Test compound; intravenously) and 24 hours (Test compound; orally) after endotoxin for measurements of serum FDP (fibrin degradation products), respectively. FDP was determined by the latex aggregation test.

The subject of another assay is PAF-induced lethality. The experiment in a line: Effect of the test compound on the PAF-induced lethality in rats. The class given is in vivo, male Wistar rats. As to conditions: Rattus norvegicus, survival for 24 hours. The method, then:
Conscious male Wistar rats, 150-200 g body weight, 7 weeks old, were used in the experiment on PAF-induced lethality. The animals were fasted before the experiment. Test compound was given orally 60 minutes before (or intravenously simultaneously with) intravenous PAF injection (10 μg/kg) into a tail vein. Survival of the animals was recorded for 24 hours after intravenous PAF injection.

The subject of assay [3] is PAF-induced bronchoconstriction. Nature of the assay: Effect of the test compound on PAF-induced bronchoconstriction in the guinea-pig. Format: in vivo, Male Hartley guinea-pigs. As to conditions: Cavia porcellus, po, orally 30 minutes before PAF (0.64 μg/ml, 1 ml/kg), read-out: ED50 (effective dose of the test compound to inhibit the PAF-induced bronchoconstriction by 50%). The procedure: Male Hartley guinea-pigs (400-500 g) were anesthetized with sodium pentobarbital (25 mg/kg, intraperitoneally). The right jugular vein was catheterized for injection of PAF (0.64 μg/ml, 1 ml/kg), and the animals were tracheotomized and ventilated with a respiratory pump (Harvard B-34, 5 ml/stroke, 60 strocks/minutes).
The test compound was administered orally 30 minutes before challenge with PAF.
(ED50 : effective dose of the test compound to inhibit the PAF-induced bronchoconstriction by 50%).

In assay [4] the test system is platelet aggregation induced with PAF. The experiment in a line: Test 1 (Inhibition of platelet aggregation). Format: cell-based, male Japanese white rabbit. The settings on record: Oryctolagus cuniculus; rabbit platelet rich plasma; final concentration of PAF usually 32 nM; read-out: IC50 (concentration required to inhibit the platelet aggregation response by 50%). The method, then:
Blood was collected through the polyethylene catheter introduced into the carotid artery of male Japanese white rabbit (2.5 to 3 kg body weight). The blood was anticoagulated with 1 volume of 3.8% sodium citrate to 9 volume of blood. Platelet rich plasma (PRP) was prepared by centrifugation of the blood at 150 g for 10 minutes at room temperature. The PRP was diluted with platelet poor plasma obtained by further centrifugation of the blood at 1,000 g for 20 minutes. The platelet number was 5×10^5 cells/mm^3. Platelet aggregation induced with PAF [1-O-hexadecyl-2-O-acetyl-sn-glycero-3-phosphorylcholine] was measured by the nephelometric technique of Born and Cross [cf. Journal of Physiology 168, 178-188 (1963)] using HKK Hema tracer (trade name, made by Niko Bioscience Inc.).
Activity of inhibitor was expressed as IC50 value, i.e. concentration required to inhibit the platelet aggregation response by 50%. The final concentration of PAF was usually 32 nM.

Structures are written as SMILES. Converted amounts (≈) assume the structure as drawn. Where two headings read alike, the source gives them in different places.

Consider `O=C1CC2(CCCCC2Cc2cccc(Cl)c2)S(=O)(=O)CCN1Cc1cccnc1` (stereo not shown) [1-(3-Chlorophenylmethyl)-10-(3-pyridylmethyl)-11-oxo-7-thia-10-azaspiro[5.6]dodecane 7,7-dioxide], for which the ED50 in assay [1] is 2.9 mg/kg.
Take `O=C1C[C@]2(CCCC[C@H]2Cc2ccccc2)S(=O)(=O)CCN1Cc1cccnc1` [(1S,6S)-1-Phenylmethyl-10-(3-pyridylmethyl)-11-oxo-7-thia-10-azaspiro[5.6]dodecane 7,7-dioxide]: the ED50 was found to be 2.4 mg/kg in assay [2] (intravenous, simultaneous with endotoxin 10 mg/kg, serum FDP at 4 hours, read-out: ED50 (mg/kg), endotoxin-induced DIC, intravenous); 6.8 mg/kg in assay [2] (oral, 60 minutes before and 6 hours after endotoxin 10 mg/kg, serum FDP at 24 hours, read-out: ED50 (mg/kg), endotoxin-induced DIC, oral); 1 mg/kg with PAF-induced lethality (intravenous, simultaneously with PAF 10 μg/kg i.v., read-out: ED50 (mg/kg), PAF-induced lethality, intravenous); 2 mg/kg with PAF-induced lethality (oral, 60 minutes before PAF 10 μg/kg i.v., read-out: ED50 (mg/kg), PAF-induced lethality, oral); 3.7 mg/kg in assay [3].
Take `CN(C)CCN1C(=O)CC2(CCCCC2Cc2ccccc2Cl)[S+]([O-])c2ccccc21` (stereo not shown) [2'-(2-Chlorophenylmethyl)-4,5-dihydro-4-oxo-5-{2-(N,N-dimethylamino)ethyl}spiro[1,5-benzothiazepine-2(3H), 1'-cyclohexane] 1-oxide]: in assay [4], the IC50 came to 0.17 µg/mL (≈ 0.37 µM).
